# Experimental data as given in patent US11028051B2, “Tetrahydroquinoline-based bromodomain inhibitors” (St. Jude Children's Research Hospital, priority 2016, dated 2021).
# Like-named read-outs stand apart in the source and are kept apart here.
# Key:
# [1] = biological target: T1, BRD2-BD1 (Homo sapiens (Human), UniProt P25440); test: isothermal titration calorimetry analysis of binding; details: ITC, BRD2-BD1
# Method: b. Isothermal Titration Calorimetry Analysis of Binding to Brd2-BD1 and Brd2-BD2
# Binding of compounds to BRD2 was monitored using an ITC200 (Microcal, Piscataway, N.J.). Either Brd2.1 (74-194) or Brd2.2 (348-455) was dialyzed overnight into a solution containing 50 mM HEPES, pH 7.0 and 150 mM NaCl at 15° C. Enzyme concentrations were determined after dialysis by absorbance at 280 nm using a molar extinction coefficient (ε280) of 25,565 M^−1 cm^−1 (2.1) or 16,055 M^−1 cm^−1 (2.2). Enzyme was diluted in dialysis buffer and 39.6 μL was loaded into the syringe. Compounds were dissolved in the same dialysis buffer and loaded in the cell to a volume of 204 μL. Injections were carried out by serial injections of enzyme; first, 1 injection of 1 μL, followed by 19 incremental injections of 2 μL, at 120 second intervals. Data from the first injection was excluded, due to pre-equilibration mixing between the contents of cell and syringe at the syringe tip. Peak areas were integrated, normalized, and then fitted by non-linear regression using the independent sites model in Origin™ (version 2.3.6, Microcal, Piscataway, N.J.).
# Target sequence in this assay (P25440 74-194): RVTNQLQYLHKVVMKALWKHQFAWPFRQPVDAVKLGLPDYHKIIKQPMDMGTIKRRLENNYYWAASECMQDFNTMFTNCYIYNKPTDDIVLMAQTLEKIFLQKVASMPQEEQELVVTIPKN
# [2] = biological target: BRD4-BD2 (Homo sapiens (Human), UniProt O60885); test: competitive TR-FRET assay, BET-BD with acetylated peptide ligand; format: binding
# Method: (§1) Inhibitor potency was determined using a competitive TR-FRET assay as detailed herein, measuring interaction of the respective BET-BD with an acetylated peptide ligand (Table 2).
# [3] = biological target: BRD4-BD1 (Homo sapiens (Human), UniProt O60885); test: as above; format: binding
# Method: as §1
# [4] = test system: c-Myc expression in HDMB03 cells; test: c-Myc expression inhibition, high content microscopy (HCM); format: cell-based, human; details: Homo sapiens
# [5] = biological target: BRDT(1) (Homo sapiens (Human), UniProt Q58F21); test: BROMOscan KD determination; format: binding; details: Table 10
# From the text: (§2) DiscoverX® can screen compounds against all ˜42 bromodomains (a service called BROMOscan) and perform follow-up KD determination. This service is considered the industrial standard for bromodomain inhibitor comparisons. […] Dots are symbolic of inhibition of the compound at this concentration; the larger the size of the dot, the greater the activity of the compound. […] Though these compounds are selective for the BET family, the selectivity within the BET family is poor. The results of a competitive binding experiment between compounds 19 (left), 41 (center), and 56 (right) (at a single concentration, 1 μM) and a control for each of the bromodomains are shown in FIG. 5.
# [6] = biological target: BRD2(1) (Homo sapiens (Human), UniProt P25440); test: BROMOscan KD determination; format: binding; details: Table 10
# From the text: as §2
# [7] = biological target: BRDT(2) (Homo sapiens (Human), UniProt Q58F21); test: BROMOscan KD determination; format: binding; details: for T(1)/T(2): BROMOscan KD ratio; for Kd: BROMOscan, Table 10
# From the text: as §2
# [8] = biological target: BRD2(2) (Homo sapiens (Human), UniProt P25440); test: BROMOscan KD determination; format: binding; details: for [2(1)/2(2)]: BROMOscan KD ratio; for Kd: BROMOscan, Table 10
# From the text: as §2
# [9] = biological target: BRD4(1) (Homo sapiens (Human), UniProt O60885); test: BROMOscan KD determination; format: binding; details: Table 10
# From the text: (§3) DiscoverX® can screen compounds against all ˜42 bromodomains (a service called BROMOscan) and perform follow-up KD determination. This service is considered the industrial standard for bromodomain inhibitor comparisons.
# [10] = biological target: BRD4(2) (Homo sapiens (Human), UniProt O60885); test: BROMOscan KD determination; format: binding; details: for 4(1)/4(2): BROMOscan KD ratio; for Kd: BROMOscan, Table 10
# From the text: as §3
# [11] = biological target: BRD3(1) (Homo sapiens (Human), UniProt Q15059); test: BROMOscan KD determination; format: binding; details: Table 10
# From the text: as §3
# [12] = biological target: BRD3(2) (Homo sapiens (Human), UniProt Q15059); test: BROMOscan KD determination; format: binding; details: for 3(1)/3(2): BROMOscan KD ratio; for Kd: BROMOscan, Table 10
# From the text: as §3
# [13] = biological target: BRDT (Homo sapiens, UniProt Q58F21); test: competitive TR-FRET assay, BET-BD with acetylated peptide ligand; format: binding; details: read-out: BRDT EC50
# Method: as §1
# [14] = biological target: T1, BRD2-BD1; test: as above; format: binding
# Method: as §1
# Target sequence in this assay (P25440 74-180): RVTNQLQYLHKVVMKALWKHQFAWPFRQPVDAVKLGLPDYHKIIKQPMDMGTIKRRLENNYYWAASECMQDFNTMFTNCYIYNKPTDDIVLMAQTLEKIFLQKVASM
# [15] = biological target: BRD2-BD2 (Homo sapiens (Human), UniProt P25440); test: as above; format: binding; details: for 2.1/2.2: ratio of BRD2-BD1 EC50 to BRD2-BD2 EC50 (selectivity); for [2(1)/2(2)]: Table 4, ratio of EC50
# Method: as §1
# [16] = biological target: BRD3-BD1 (Homo sapiens (Human), UniProt Q15059); test: as above; format: binding
# Method: as §1
# [17] = test system: HDMB03 cells; test: cell viability, CellTiter-Glo; format: cell-based, human; details: Homo sapiens, HD-MB03, Table 5; read-out: EC50 (μM) HDMB03
# Method: Human G3 medulloblastoma or mouse SHH medulloblastoma cells were grown as neurospheres in supplemented neurobasal medium, as previously described (Kawauchi et al., 2012.)
# After 7 days of treatment, an equal volume of CellTiter-Glo reagent (G7572, Promega) was added and the luminescence signal was measured using an automated Envision plate reader (Perkin-Elmer). Luminescence data were normalized by log10 transformation prior to calculating the percent inhibition using the following equation:
# 100*(negative control mean −compound value)/(negative control mean −positive control mean).
# High-throughput assay data were analyzed using Robust Interpretation of Screening Experiments (RISE) application written in Pipeline Pilot (Accelrys, v. 8.5) and the R program (R Development Core Team).
# Dose-response curves were calculated by regressing the median percent inhibition obtained over triplicate experiments to log 10-transformed concentrations. Non-linear regression was then performed using the R drc package with the four parameter log-logistic function (LL2.4) (Ritz and Streibig, 2009). Curves were fit under three different constraints: (1) all parameters free, (2) high response fixed to 100, (3) low response fixed to 0; and the best fit from these three nested models was selected using the anova.drc function.
# [18] = Table 2, inhibitor potency by TR-FRET
# [19] = BRDT, Table 11 additional modifications
# [20] = BRD4-BD2, Table 11 additional modifications, read-out: 4.2 EC50
# [21] = BRD2-BD1, Table 11 additional modifications, read-out: 2.1 EC50
# [22] = BRD2-BD2, Table 11 additional modifications, read-out: 2.2 EC50
# [23] = BRD3-BD1, Table 11 additional modifications, read-out: 3.1 EC50
# [24] = BRD4-BD1, Table 11 additional modifications, read-out: 4.1 EC50
# [25] = Table 4, read-out: EC50 (μM) BRD2(1)
# [26] = Table 4, read-out: EC50 (μM) BRD2(2)
# [27] = HD-MB03, Table 5, read-out: EC50 (μM) Myc-inhibition
# BRD2-BD2, sequence (P25440 344-453): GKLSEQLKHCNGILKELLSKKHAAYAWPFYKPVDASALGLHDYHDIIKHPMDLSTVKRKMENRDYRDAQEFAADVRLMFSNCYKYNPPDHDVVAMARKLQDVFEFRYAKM
# BRD2(2), sequence (P25440 344-453): as above
# BRD3(2), sequence (Q15059 306-415): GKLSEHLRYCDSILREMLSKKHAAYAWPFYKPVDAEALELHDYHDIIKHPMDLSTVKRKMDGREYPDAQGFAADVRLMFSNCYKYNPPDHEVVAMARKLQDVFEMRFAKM
# BRD3-BD1, sequence (Q15059 34-140): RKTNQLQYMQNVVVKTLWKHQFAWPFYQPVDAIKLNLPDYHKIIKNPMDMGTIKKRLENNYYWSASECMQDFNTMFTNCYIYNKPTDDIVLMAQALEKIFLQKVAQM
# BRD2(1), sequence (P25440 74-180): as the sequence (P25440 74-180) above
# BRD3(1), sequence (Q15059 34-140): as the sequence (Q15059 34-140) above
SMILES,Kd [5],Kd [6],T(1)/T(2) [7],Kd [7],[2(1)/2(2)] [8],Kd [8],Kd [9],4(1)/4(2) [10],Kd [10],Kd [11],3(1)/3(2) [12],Kd [12],"EC50 [13, 19]","EC50 [2, 20]","EC50 [14, 21]","EC50 [15, 22]",2.1/2.2 [15],"EC50 [16, 23]","EC50 [3, 24]",EC50 [17],also measured
CC(=O)N1c2ccc(-c3ccco3)cc2[C@H](NC(=O)OC(C)C)C[C@@H]1C [compound 50],–,–,–,–,–,–,–,–,–,–,–,–,–,–,–,–,–,–,–,–,"ΔG [1]: -7.47 kcal/mol; −TΔS [1]: -0.20 kcal/mol; IC50 [2, 18]: 2600 nM; IC50 [3, 18]: 4600 nM; EC50 ([4]; HD-MB03, HDMB03 cells, read-out: c-Myc expression EC50): 0.33 µM"
CC(=O)N1c2ccc(-c3cccc(-n4cccn4)c3)cc2[C@H](Nc2ccc(Cl)cc2)C[C@@H]1C [compound 136],220 nM,350 nM,3.3,66 nM,21.9,16 nM,270 nM,35.1,7.7 nM,220 nM,29.3,7.5 nM,10000 nM,0.25 µM,17 µM,0.19 µM,63,10000 nM,17 µM,–,–
CC(=O)Nc1cccc(-c2ccc3c(c2)[C@H](Nc2ccc(F)cc2)C[C@H](C)N3C(C)=O)c1 [compound 39],–,–,–,–,–,–,–,–,–,–,–,–,–,–,–,–,–,–,–,1.68 µM,"EC50 ([13]; Table 4): 10000 nM; 4(1)/4(2) ([2]; Table 4, ratio of EC50): 63; EC50 ([2]; Table 4, read-out: EC50 (μM) BRD4(2)): 0.09 µM; EC50 [14, 25]: 5.6 µM; [2(1)/2(2)] [15]: 51; EC50 [15, 26]: 0.11 µM; EC50 ([16]; Table 4, read-out: BRD3(1)): 2700 nM; EC50 ([3]; Table 4, read-out: EC50 (μM) BRD4(1)): 5.7 µM; EC50 [4, 27]: 0.04 µM"
COc1cc(F)ccc1N[C@@H]1C[C@H](C)N(C(C)=O)c2ccc(-c3cccc(NC(C)=O)c3)cc21 [compound 42],–,–,–,–,–,–,–,–,–,–,–,–,–,–,–,–,–,–,–,0.76 µM,"EC50 ([13]; Table 4): > 14000 nM; EC50 [14, 25]: 13 µM; [2(1)/2(2)] [15]: >100; EC50 [15, 26]: 0.14 µM; EC50 ([16]; Table 4, read-out: BRD3(1)): > 14000 nM; EC50 [4, 27]: > 10 µM"

# More lines, main results first:
Kd [5],Kd [6],T(1)/T(2) [7],Kd [7],[2(1)/2(2)] [8],Kd [8],Kd [9],4(1)/4(2) [10],Kd [10],Kd [11],3(1)/3(2) [12],Kd [12],"EC50 [13, 19]","EC50 [2, 20]","EC50 [14, 21]","EC50 [15, 22]",2.1/2.2 [15],"EC50 [16, 23]","EC50 [3, 24]",SMILES,EC50 [17],also measured
20 nM,28 nM,2.9,6.9 nM,14.0,2 nM,17 nM,13.1,1.3 nM,22 nM,28.2,0.78 nM,2500 nM,60 µM,0.88 µM,59 µM,0.015,1100 nM,1.3 µM,CC(=O)Nc1cccc(-c2ccc3c(c2)[C@H](Nc2ccc4ncccc4c2)C[C@H](C)N3C(C)=O)c1 [compound 13],–,–
–,–,–,–,–,–,–,–,–,–,–,–,10000 nM,81 µM,81 µM,0.08 µM,>1000,1600 nM,4.8 µM,COC(=O)c1cccc(N[C@@H]2C[C@H](C)N(C(C)=O)c3ccc(-c4cccc(NC(C)=O)c4)cc32)c1 [compound 7],–,–
